Measurements published in patent publication US6407104B1, “Pyrrolo[1,2-a]pyrazine spla2 inhibitor” (Shionogi & Co., Ltd., priority 1998, dated 2002).
pIC50: −log10 of the molar value.

What was measured:
[1] = molecular target: T1, recombinant human secretory phospholipase A2 (Homo sapiens, UniProt P14555); assay: Inhibition Test of Human Secretory Phospholipase A2 (chromogenic assay); assay type: biochemical; details: sPLA2 50 ng/well, 40° C., 30 minutes, OD 405 nm, 96 well microtiterplate
T1 sequence (P14555 21-144): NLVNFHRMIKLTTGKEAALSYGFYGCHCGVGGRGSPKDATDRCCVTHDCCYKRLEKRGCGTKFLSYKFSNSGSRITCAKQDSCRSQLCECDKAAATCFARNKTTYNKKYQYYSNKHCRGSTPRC
Description: Test Example: Inhibition Test of Human Secretory Phospholipase A2
In order to identify and evaluate an inhibitor of recombinant human secretory phospholipase A2, the following chromogenic assay is utilized. The assay herein has been applied for high volume screening wherein 96 well microtiterplate is used. A general explanation for such assay is described in “Analysis of Human Synovial Fluid Phospholipase A2 on Short Chain Phosphatidylcholine-Mixed Micelles: Development of a Spectrophotometric Assay Suitable for a Micortiterplate Reader” (Analytical Biochemistry, 204, pp 190-197, 1992 by Laure. J. Reynolds. Lori L. Hughes and Edward A. Dennis: the disclosure of which is incorporated herein for reference.
pH 7.5 (adjusted with NaOH)
pH 4.5 (adjusted with acetic acid)
1 mg of sPLA2 is dissolved in 1 ml of an enzyme buffer. Thereafter, the solution is maintained at 4° C.
In the assay, 5 μl of the solution is diluted with 1995 μl of the reaction buffer to be used.
198 mg of 5,5′-dithiobis-2-[…] (manufactured by Wako Pure Chemicals) is dissolved in 100 ml of H2O
H 7.5 (adjusted with NaOH)
100 mg of racemic 1,2-bis(heptanoylthio)-1,2-dideoxy-sn-glycero-3-phospholylcholine is dissolved in 1 ml of chloroform.
624.9 mg of Triton-X 100 is dissolved in the reaction buffer.
Enzyme Reaction: for 1 Plate of Microtiterplate
1) 0.106 ml of the substrate solution is put in a centrifugal tube, and nitrogen gas is jetted to remove the solvent. 0.54 ml of Triton-X 100 is added thereto, the mixture is stirred, thereafter it is sonified in a bath type sonification to dissolve. To the resulting product are added 17.8 ml of the reaction buffer and 0.46 ml of DTNB, and 0.18 ml each of the admixture is poured to wells of the 96 well microtiterplate.
2) 10 μl of a test compound (or solvent blank) are added in accordance with alignment of plates which has been previously set.
3) Incubation is effected at 40° C. for 15 minutes.
4) 20μl of an enzyme solution (sPLA2) which has been previously diluted (50 ng/well) are added to start reaction (40° C., 30 minutes).
5) Changes in absorbancy for 30 minutes are measured by a plate reader, and inhibition activity was calculated (OD: 405 nm).
6) IC50 was determined by plotting log concentration with respect to inhibition values within 10% to 90% inhibiting range.

Compound	melting point	pIC50 [1]
CCc1c(C(=O)C(N)=O)c2c(OCC(=O)OC)nc(C)cn2c1Cc1ccc(C)s1 [Compound I-85]	203 to 204 °C	6.43
CCc1c(C(=O)C(N)=O)c2c(OCC(=O)OC)nc(C)cn2c1Cc1ccccc1-c1ccc(C)cc1 [Compound I-69]	167.5 to 169.5 °C	7.48
CCc1c(C(=O)C(N)=O)c2c(OCC(=O)OC)nc(C)cn2c1Cc1ccccc1-c1cccs1 [Compound I-51]	134.5 to 136 °C	7.21
CCc1c(C(=O)C(N)=O)c2c(OCC(=O)OC)nc(C)cn2c1CC1CCCC1 [Compound I-23]	135 to 136.5 °C	6.19
Cc1cn2c(Cc3ccccc3)c(C)c(C(=O)C(N)=O)c2c(OCC(=O)O)n1 [Compound I-84]	199.5 to 201 °C	8.10
CCc1c(C(=O)C(N)=O)c2c(OCC(=O)O)nccn2c1CC1CCCC1 [Compound I-16]	203 to 205 °C	8.22
CCc1c(C(=O)C(N)=O)c2c(OCC(=O)OC)nc(C)cn2c1Cc1ccccc1C(=O)c1ccccc1 [Compound I-71]	190 to 192 °C	6.05
CCc1c(C(=O)C(N)=O)c2c(OCC(=O)O)nc(C)cn2c1Cc1cccc(-c2ccc(C)s2)c1 [Compound I-64]	190.5 to 193 °C	8.22
CCc1c(C(=O)C(N)=O)c2c(OCC(=O)OC)nccn2c1Cc1ccc2ccsc2c1 [Compound I-11]	144 to 148 °C	6.71
CCc1c(C(=O)C(N)=O)c2c(OCC(=O)OC)nc(C)cn2c1Cc1cccc(-c2ccc(C)s2)c1 [Compound I-63]	179.5 to 181 °C	7.24
COC(=O)COc1nc(C)cn2c(Cc3ccccc3)c(C3CC3)c(C(=O)C(N)=O)c12 [Compound I-75]	210 to 211.5 °C	5.84
CCc1c(C(=O)C(N)=O)c2c(OCC(=O)OC)nc(Cc3ccccc3)cn2c1Cc1ccccc1 [Compound I-49]	178 to 180 °C	6.68
CCOC(=O)COc1nc(C)cn2c(Cc3ccccc3-c3ccc(F)cc3)c(CC)c(C(=O)C(N)=O)c12 [Compound I-90]	172 to 173 °C	7.42
CCc1c(C(=O)C(N)=O)c2c(OCC(=O)O)nc(C)cn2c1Cc1ccc(OC)cc1 [Compound I-34]	200 to 201.5 °C	7.59
CCc1c(C(=O)C(N)=O)c2c(OCC(=O)OC)nc(C)cn2c1Cc1csc2ccccc12 [Compound I-87]	186 to 187 °C	6.89
CCc1c(C(=O)C(N)=O)c2c(OCC(=O)O)nccn2c1Cc1cccc(OC)c1 [Compound I-10]	196 to 197.5 °C	7.85
CCc1c(C(=O)C(N)=O)c2c(OCC(=O)OC)nc(C)cn2c1Cc1ccc(F)cc1F [Compound I-31]	161 to 163 °C	5.93
CCc1c(C(=O)C(N)=O)c2c(OCC(=O)O)nc(C)cn2c1Cc1ccccc1Cc1ccccc1 [Compound I-28]	180.5 to 182.5 °C	8.15
CCc1c(C(=O)C(N)=O)c2c(OCC(=O)OC)nc(CC(C)C)cn2c1Cc1ccccc1 [Compound I-45]	129 to 130 °C	6.93
CCc1c(C(=O)C(N)=O)c2c(OCC(=O)O)nc(C)cn2c1Cc1ccccc1-c1ccccc1 [Compound I-22, [6-(2-Biphenylmethyl)-7-ethyl-3-methyl-8-oxamoylpyrrolo [1,2-a]pyrazin-1-yl]oxyacetic acid]	192 to 194 °C	8.10
CCc1c(C(=O)C(N)=O)c2c(OCC(=O)OC)nccn2c1Cc1ccccc1 [Compound I-1]	151 to 152 °C	6.68
CCc1c(C(=O)C(N)=O)c2c(OCC(=O)O)nc(C)cn2c1Cc1ccccc1CCc1ccccc1 [Compound I-74]	189 to 191 °C	8.22
CCc1c(C(=O)C(N)=O)c2c(OCC(=O)O)nccn2c1Cc1ccc2ccsc2c1 [Compound I-12]	209 to 211 °C	8.00
